Source: publication PMC3179181 (Journal of medicinal chemistry, 2010)
Entries after “also recorded” stand apart in the source; their conditions may differ.

Key:
PLD2 [1] = target: T1, PLD2 (Homo sapiens, UniProt O14939); experiment: cell-based
PLD1 = target: T2, PLD1 (Homo sapiens, UniProt Q13393); experiment: cell-based
T2 sequence (Q13393 1-1074): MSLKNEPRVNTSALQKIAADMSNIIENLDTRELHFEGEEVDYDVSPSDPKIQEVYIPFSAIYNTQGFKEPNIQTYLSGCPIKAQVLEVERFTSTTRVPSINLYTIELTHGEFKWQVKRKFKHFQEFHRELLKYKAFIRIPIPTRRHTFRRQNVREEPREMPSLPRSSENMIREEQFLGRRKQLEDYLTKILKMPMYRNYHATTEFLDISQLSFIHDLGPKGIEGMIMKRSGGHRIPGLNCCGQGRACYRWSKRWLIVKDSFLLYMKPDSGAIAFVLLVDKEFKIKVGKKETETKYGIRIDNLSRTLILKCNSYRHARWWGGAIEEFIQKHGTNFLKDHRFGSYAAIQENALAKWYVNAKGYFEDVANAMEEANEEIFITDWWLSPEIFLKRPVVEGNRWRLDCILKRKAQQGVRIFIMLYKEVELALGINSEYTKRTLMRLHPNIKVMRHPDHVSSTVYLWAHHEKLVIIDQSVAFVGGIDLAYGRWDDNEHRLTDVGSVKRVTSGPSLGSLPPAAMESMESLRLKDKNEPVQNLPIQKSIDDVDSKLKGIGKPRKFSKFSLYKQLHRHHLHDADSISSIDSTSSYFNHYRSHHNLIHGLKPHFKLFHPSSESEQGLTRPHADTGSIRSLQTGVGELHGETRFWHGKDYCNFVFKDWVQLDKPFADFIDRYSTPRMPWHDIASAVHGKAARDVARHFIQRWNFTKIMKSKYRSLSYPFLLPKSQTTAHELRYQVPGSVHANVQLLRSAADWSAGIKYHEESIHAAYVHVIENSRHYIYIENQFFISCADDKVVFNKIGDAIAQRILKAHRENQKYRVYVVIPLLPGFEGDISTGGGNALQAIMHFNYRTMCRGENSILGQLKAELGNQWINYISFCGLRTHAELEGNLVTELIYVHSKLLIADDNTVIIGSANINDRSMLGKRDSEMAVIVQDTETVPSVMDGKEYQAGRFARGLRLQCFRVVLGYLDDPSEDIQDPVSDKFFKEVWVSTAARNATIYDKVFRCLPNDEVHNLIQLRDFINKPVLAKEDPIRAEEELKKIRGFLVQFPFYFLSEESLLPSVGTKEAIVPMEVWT

PLD2 [2] = target: T1, PLD2
Caspase 3 and 7 = experiment: Caspase 3/7 activity; assay type: cell-based; settings: 48 hours, 10 μM, versus vehicle; for Caspase 3 and 7 activity: serum free
[3] = rat

T1 sequence (O14939 whole entry): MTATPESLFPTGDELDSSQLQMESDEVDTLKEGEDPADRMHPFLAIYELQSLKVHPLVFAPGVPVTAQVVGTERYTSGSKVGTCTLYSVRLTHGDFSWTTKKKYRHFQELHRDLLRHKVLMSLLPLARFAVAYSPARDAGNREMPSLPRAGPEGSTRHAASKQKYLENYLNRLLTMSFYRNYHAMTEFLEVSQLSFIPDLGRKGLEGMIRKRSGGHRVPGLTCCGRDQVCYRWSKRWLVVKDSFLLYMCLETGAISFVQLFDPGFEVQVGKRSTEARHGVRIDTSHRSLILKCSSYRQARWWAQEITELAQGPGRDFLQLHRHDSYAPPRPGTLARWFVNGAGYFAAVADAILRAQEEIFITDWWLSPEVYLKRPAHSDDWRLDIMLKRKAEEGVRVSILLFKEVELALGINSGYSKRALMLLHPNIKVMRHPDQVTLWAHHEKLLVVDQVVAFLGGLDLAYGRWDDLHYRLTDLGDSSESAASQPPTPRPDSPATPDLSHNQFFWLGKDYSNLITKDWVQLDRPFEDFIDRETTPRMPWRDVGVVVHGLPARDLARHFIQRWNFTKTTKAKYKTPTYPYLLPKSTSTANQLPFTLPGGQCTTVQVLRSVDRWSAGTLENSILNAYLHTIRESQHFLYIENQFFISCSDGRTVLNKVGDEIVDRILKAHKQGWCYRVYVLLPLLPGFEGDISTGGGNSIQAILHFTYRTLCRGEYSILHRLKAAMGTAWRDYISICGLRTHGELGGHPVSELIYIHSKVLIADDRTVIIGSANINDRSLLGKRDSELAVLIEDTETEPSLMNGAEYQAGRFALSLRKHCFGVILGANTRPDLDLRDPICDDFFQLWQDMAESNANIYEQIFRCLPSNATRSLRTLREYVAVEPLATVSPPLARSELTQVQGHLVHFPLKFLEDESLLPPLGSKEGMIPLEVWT

Structure (SMILES)	IC50 (PLD2 [1]) [µM]	IC50 (PLD1) [µM]	Fold PLD2 Selective (PLD2 [2]) [fold]	increase in Caspase 3 and 7 activity (Caspase 3 and 7; 10% FBS)	Caspase 3 and 7 activity (Caspase 3 and 7)	plasma protein binding (% bound) [3] [% bound]
C[C@@H](CN1CCC2(CC1)C(=O)NCN2c1ccc(F)c(F)c1)NC(=O)c1ccc2ccccc2c1.O=C(O)C(F)(F)F [24a, (S)-N-(1-(1-(3,4-difluorophenyl)-4-oxo-1,3,8-triazaspiro[4.5]decan-8-yl)propan-2-yl)-2-naphthamide 2,2,2-trifluoroacetate]	0.12	2.8	23			
C[C@@H](CN1CCC(n2c(=O)[nH]c3cc(Br)ccc32)CC1)NC(=O)[C@H]1C[C@@H]1c1ccccc1 [compound 14]				marginal increase; also recorded: fairly resistant to PLD inhibitor treatment	increased Caspase 3 & 7 activity	
O=C(NCCN1CCC2(CC1)C(=O)NCN2c1cccc(F)c1)c1ccc2ccccc2c1 [22a, N-(2-(1-(3-fluorophenyl)-4-oxo-1,3,8-triazaspiro[4.5]decan-8-yl)ethyl)-2-naphthamide]					increased Caspase 3 & 7 activity	97.9
